Results reported in the supplement of paper PMC10307832.

Tests used:
Experiment in all cases: relative viability (nuclei count vs DMSO), 5 days (fraction); higher = more cells survive
AZ628 + Palbociclib = compound: CC1=C(C=C(C=C1)NC(=O)C2=CC(=CC=C2)C(C)(C)C#N)NC3=CC4=C(C=C3)N=CN(C4=O)C [AZ628] + CC(=O)c1c(C)c2cnc(Nc3ccc(N4CCNCC4)cn3)nc2n(C2CCCC2)c1=O [Palbociclib] (partner 0.5 µM)
Summary of the method: (§1)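 Dosing by pin tool came one day after lung cancer cell lines were seeded in 1536-well plates, using either one drug or a fixed anchor-drug dose plus five library-drug doses (not always all listed) in √10 steps. After 5 days, nuclei were counted on 4× images. Relative viability is treated-well nuclei count divided by vehicle-well nuclei count, and values are medians of duplicate plates.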

[1] = compound: C[As](C)SC[C@H](NC(=O)CC[C@H](N)C(=O)O)C(=O)NCC(=O)O [Darinaparsin] + Nc1nc2[nH]cc(CCc3ccc(C(=O)N[C@@H](CCC(=O)O)C(=O)O)cc3)c2c(=O)[nH]1 [Pemetrexed] (partner 0.2 µM)
Summary of the method: as §1

QS11 + Navitoclax = compound: C1CC2=C(C1)C=C(C=C2)OC3=NC(=C4C(=N3)N(C=N4)CC5=CC=C(C=C5)C6=CC=CC=C6)N[C@@H](CC7=CC=CC=C7)CO [QS11] + CC1(C)CCC(c2ccc(Cl)cc2)=C(CN2CCN(c3ccc(C(=O)NS(=O)(=O)c4ccc(N[C@H](CCN5CCOCC5)CSc5ccccc5)c(S(=O)(=O)C(F)(F)F)c4)cc3)CC2)C1 [Navitoclax] (partner 0.5 µM)
Summary of the method: as §1

AZ628 + Navitoclax = compound: CC1=C(C=C(C=C1)NC(=O)C2=CC(=CC=C2)C(C)(C)C#N)NC3=CC4=C(C=C3)N=CN(C4=O)C [AZ628] + CC1(C)CCC(c2ccc(Cl)cc2)=C(CN2CCN(c3ccc(C(=O)NS(=O)(=O)c4ccc(N[C@H](CCN5CCOCC5)CSc5ccccc5)c(S(=O)(=O)C(F)(F)F)c4)cc3)CC2)C1 [Navitoclax] (partner 0.5 µM)
Summary of the method: as §1

| Cell Line | relative viability (AZ628 + Palbociclib; first compound 0.08 µM) | relative viability (AZ628 + Palbociclib; first compound 0.253 µM) | relative viability (AZ628 + Palbociclib; first compound 0.8 µM) | relative viability (AZ628 + Palbociclib; first compound 2.53 µM) | relative viability (AZ628 + Palbociclib; first compound 8 µM) | relative viability ([1]; first compound 0.08 µM) | relative viability ([1]; first compound 0.8 µM) | relative viability ([1]; first compound 2.53 µM) | relative viability ([1]; first compound 8 µM) | relative viability (QS11 + Navitoclax; first compound 0.08 µM) | relative viability (QS11 + Navitoclax; first compound 0.253 µM) | relative viability (QS11 + Navitoclax; first compound 0.8 µM) | relative viability (QS11 + Navitoclax; first compound 2.53 µM) | relative viability (QS11 + Navitoclax; first compound 8 µM) | relative viability (AZ628 + Navitoclax; first compound 0.08 µM) | relative viability (AZ628 + Navitoclax; first compound 0.253 µM) | relative viability (AZ628 + Navitoclax; first compound 0.8 µM) | relative viability (AZ628 + Navitoclax; first compound 2.53 µM) | relative viability (AZ628 + Navitoclax; first compound 8 µM) |
| --- | --- | --- | --- | --- | --- | --- | --- | --- | --- | --- | --- | --- | --- | --- | --- | --- | --- | --- | --- |
| NCI-H2342 | 0.544 | 0.513 | 0.562 | 0.511 | 0.537 | 0.785 | 0.782 | 0.743 | 0.841 | – | – | – | – | – | – | – | – | – | – |
| NCI-H1975 | 0.504 | 0.485 | 0.548 | 0.534 | 0.233 | 0.328 | 0.301 | 0.291 | 0.319 | 1.09 | 1.2 | 1.02 | 1.59 | 1.26 | 1.09 | 1.04 | 1.02 | 1.04 | 0.654 |
| CAL-12T | 0.473 | 0.304 | 0.209 | 0.232 | 0.161 | 1.65 | 1.08 | 1.17 | 1.38 | 1.18 | 1.39 | 1.15 | 1.08 | 1.14 | 1.33 | – | 1.24 | 1.28 | 0.826 |
| NCI-H1648 | 0.264 | 0.268 | 0.224 | 0.253 | 0.274 | – | 0.716 | – | 0.683 | – | – | – | – | – | – | – | – | – | – |
| NCI-H358 | 0.126 | 0.131 | 0.136 | 0.142 | 0.123 | 0.176 | 0.162 | 0.172 | 0.18 | – | – | – | – | – | – | – | – | – | – |
| NCI-H3122 | 0.159 | 0.144 | 0.142 | 0.144 | 0.137 | 0.195 | 0.193 | 0.197 | 0.222 | 1.01 | 1.06 | 0.698 | 1.06 | 0.817 | 0.929 | 0.762 | 0.73 | 0.555 | 0.42 |
| NCI-H2347 | 0.468 | 0.352 | 0.266 | 0.403 | 0.344 | 0.444 | 0.396 | 0.408 | 0.477 | 0.598 | 0.826 | 0.716 | 0.743 | 0.839 | 0.519 | 0.67 | 0.712 | 0.638 | 0.368 |
| HCC-15 | 0.708 | 0.718 | 0.656 | 0.677 | 0.421 | 0.223 | 0.221 | 0.211 | 0.213 | 0.728 | 0.795 | – | 0.877 | 0.782 | 0.676 | 0.619 | 0.54 | 0.474 | 0.312 |
| HCC-366 | 0.383 | 0.352 | 0.328 | 0.445 | 0.163 | 0.18 | – | 0.15 | 0.2 | 1.05 | 1.08 | – | 0.721 | 0.414 | 1.01 | 1.09 | 0.997 | 0.97 | 0.598 |
| NCI-H1703 | – | – | – | – | – | – | – | – | – | 1.41 | 1.11 | 1.18 | 1.3 | 1.35 | 0.751 | 0.311 | 0.294 | 0.354 | 0.253 |
| NCI-H661 | 0.418 | 0.378 | 0.368 | 0.366 | 0.386 | 0.915 | 0.922 | 0.921 | 1.02 | – | – | – | – | – | – | – | – | – | – |
| Calu-6 | – | – | – | – | – | – | – | – | – | 1.08 | 0.844 | 0.872 | 1.01 | 0.901 | 0.926 | 0.494 | 0.317 | 0.595 | 0.152 |
| IA-LM | – | – | – | – | – | – | – | – | – | 0.762 | 0.828 | 0.69 | 0.5 | 0.614 | 1.15 | 0.716 | 0.641 | 0.761 | 0.0904 |
| NCI-H650 | 0.366 | 0.425 | 0.475 | 0.545 | 0.374 | 0.947 | 0.835 | 0.959 | 1.02 | – | – | – | – | – | – | – | – | – | – |
| A549 | – | – | – | – | – | – | – | – | – | 1.2 | 1.37 | 1.21 | 1.06 | 0.808 | 1.19 | 1.16 | 1.02 | 1.12 | 0.589 |
| EBC-1 | – | – | – | – | – | – | – | – | – | 0.387 | 0.352 | 0.374 | 0.363 | 0.393 | 0.349 | 0.427 | 0.325 | 0.326 | 0.224 |
| NCI-H522 | 0.947 | 0.954 | 0.842 | 1.04 | 0.75 | 0.916 | 1.04 | 1.01 | 1.14 | – | – | – | – | – | – | – | – | – | – |
| NCI-H727 | 0.553 | – | – | 0.517 | 0.363 | – | – | – | – | 0.389 | 0.346 | 0.47 | 0.301 | 0.328 | 0.339 | 0.276 | 0.163 | 0.154 | 0.165 |
| NCI-H1299 | – | – | – | – | – | – | – | – | – | 1.04 | 1.07 | 1.03 | 0.923 | 0.839 | 1.1 | 1.15 | 1.17 | 1.19 | 0.975 |
| NCI-H1563 | – | – | – | – | – | 0.761 | 0.765 | 0.669 | 0.866 | – | – | – | – | – | – | – | – | – | – |
| SW 900 | 0.595 | 0.542 | 0.537 | 0.555 | 0.497 | 0.402 | – | 0.481 | 0.517 | – | – | – | – | – | – | – | – | – | – |
| NCI-H596 | – | – | – | – | – | 0.513 | 0.533 | 0.479 | 0.508 | 0.94 | 0.961 | 1.07 | 0.969 | 1.24 | 0.839 | 1 | 1.08 | 1.03 | 0.931 |
